Test results reported in PubChem BioAssay AID328 (DTP/NCI, 2004).
Where “and” joins values, the source holds several entries; their conditions need not be identical. Identical values can stand only once. Inconclusive results and toxic doses are left out. The calls were made as follows: active = survival T/C of 150% or more; inactive = T/C below 125% in these data.

Test system: BDF1 mice, P388 leukemia ip, median survival T/C
Assay: NCI In Vivo Anticancer Drug Screen. Data for tumor model P388 Leukemia (intraperitoneal) in B6D2F1 (BDF1) mice
Conditions: endpoint: median survival time, higher = longer survival
In short: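 In tumour-bearing mice, survival after compound treatment is set against the vehicle group and given as a quotient.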

[1] = dose: 12.5 mg/kg/injection, schedule: Q04DX003 (ip), vehicle: saline with Tween-80
[2] = dose: 25.0 mg/kg/injection, schedule: Q04DX003 (ip), vehicle: saline with Tween-80
[3] = dose: 50.0 mg/kg/injection, schedule: Q04DX003 (ip), vehicle: saline with Tween-80
[4] = dose: 50.0 mg/kg/injection, schedule: Q01DX009 (ip), vehicle: saline with Tween-80
[5] = dose: 100.0 mg/kg/injection, schedule: Q01DX009 (ip), vehicle: saline with Tween-80
[6] = dose: 100.0 mg/kg/injection, schedule: Q04DX003 (ip), vehicle: saline with Tween-80
[7] = dose: 200.0 mg/kg/injection, schedule: Q04DX003 (ip), vehicle: saline with Tween-80
[8] = dose: 400.0 mg/kg/injection, schedule: Q04DX003 (ip), vehicle: saline with Tween-80

Measured: T/C

C(=C(\Cc1ccccc1)c1ccccc1)/c1ccccc1
inactive: dose: 50.0 mg/kg/injection, schedule: Q01DX005 (ip), vehicle: saline with Tween-80 99 % of control | dose: 100.0 mg/kg/injection, schedule: Q01DX005 (ip), vehicle: saline with Tween-80 103 % of control | dose: 200.0 mg/kg/injection, schedule: Q01DX005 (ip), vehicle: saline with Tween-80 103 % of control

Cc1cnc(=S)n(-c2ccccc2)c1
inactive: [1] 95 % of control | [2] 104 % of control | [3] 98 % of control

COc1ccc(/C=C2\N=C(c3ccccc3)OC2=O)cc1OC
inactive: dose: 100.0 mg/kg/injection, schedule: Q01DX001 (ip), vehicle: saline 90 % of control | dose: 200.0 mg/kg/injection, schedule: Q01DX001 (ip), vehicle: saline 104 % of control | dose: 400.0 mg/kg/injection, schedule: Q01DX001 (ip), vehicle: saline 104 % of control

O=[N+]([O-])c1cc([N+](=O)[O-])c2ccccc2c1NS(=O)(=O)c1ccc(Cl)c(Cl)c1
inactive: [4] 92 % of control | [5] 111 % of control

COCC12CCC(OC)C34C5CC6(O)C(OC)CC(OC(C)=O)(C5C6OC(=O)c5ccccc5)C(C(OC)C13)C4N(C)C2 (stereo unspecified)
inactive: dose: 0.13 mg/kg/injection, schedule: Q01DX009 (ip), vehicle: Klucel (hydroxypropylcellulose) (HPC) 93 % of control | dose: 0.25 mg/kg/injection, schedule: Q01DX009 (ip), vehicle: Klucel (hydroxypropylcellulose) (HPC) 88 % of control | dose: 0.5 mg/kg/injection, schedule: Q01DX009 (ip), vehicle: Klucel (hydroxypropylcellulose) (HPC) 102 % of control | dose: 1.0 mg/kg/injection, schedule: Q01DX009 (ip), vehicle: Klucel (hydroxypropylcellulose) (HPC) 102 % of control

O=C(COCc1ccccc1)OCc1ccccc1
inactive: dose: 100.0 mg/kg/injection, schedule: Q04DX003 (ip), vehicle: saline 109 % of control | dose: 200.0 mg/kg/injection, schedule: Q04DX003 (ip), vehicle: saline 104 % of control | dose: 400.0 mg/kg/injection, schedule: Q04DX003 (ip), vehicle: saline 113 % of control

COC(=O)c1cc(Cl)cc(C(=O)OC)c1
inactive: [6] 100 % of control | [7] 90 % of control | [8] 95 % of control

Nc1nc2ccccc2[nH]1
inactive: dose: 50.0 mg/kg/injection, schedule: Q01DX009 (ip), vehicle: saline 105 % of control | dose: 100.0 mg/kg/injection, schedule: Q01DX009 (ip), vehicle: saline 102 % of control

COC(=O)/C=C(\C)Oc1cc(Cl)c(Cl)cc1Cl
inactive: dose: 25.0 mg/kg/injection, schedule: Q01DX009 (ip), vehicle: saline with Tween-80 90 % of control | [4] 100 % of control | [5] 100 % of control | [6] 109 % of control | [7] 100 % of control | [8] 95 % of control

O=[N+]([O-])c1cccc2c1CCCC2
inactive: [6] 110 % of control | [7] 110 % of control | [8] 120 % of control

COc1cc(Br)c(/C=C/[N+](=O)[O-])cc1OC
inactive: [1] 105 % of control | [2] 105 % of control and 107 % of control | [3] 113 % of control | [6] 123 % of control

Cn1c(=O)c2nc(-c3ccc(Cl)cc3)c(-c3ccc(Cl)cc3)nc2n(C)c1=O
inactive: dose: 100.0 mg/kg/injection, schedule: Q01DX001 (ip), vehicle: saline with Tween-80 110 % of control | dose: 200.0 mg/kg/injection, schedule: Q01DX001 (ip), vehicle: saline with Tween-80 112 % of control

CCN1CC[N+](C)(CC)Cc2ccccc21 (stereo unspecified)
inactive: [1] 90 % of control | [2] 93 % of control

O=C(O)CCSSc1ccc([N+](=O)[O-])cc1[N+](=O)[O-]
inactive: dose: 6.25 mg/kg/injection, schedule: Q01DX009 (ip), vehicle: Klucel (hydroxypropylcellulose) (HPC) 95 % of control | dose: 6.25 mg/kg/injection, schedule: Q04DX003 (ip), vehicle: Klucel (hydroxypropylcellulose) (HPC) 100 % of control | dose: 12.5 mg/kg/injection, schedule: Q01DX009 (ip), vehicle: Klucel (hydroxypropylcellulose) (HPC) 100 % of control | dose: 12.5 mg/kg/injection, schedule: Q04DX003 (ip), vehicle: Klucel (hydroxypropylcellulose) (HPC) 109 % of control | dose: 25.0 mg/kg/injection, schedule: Q01DX009 (ip), vehicle: Klucel (hydroxypropylcellulose) (HPC) 104 % of control | dose: 25.0 mg/kg/injection, schedule: Q04DX003 (ip), vehicle: Klucel (hydroxypropylcellulose) (HPC) 109 % of control
